From publication PMC6934657, “Transdermal delivery of nobiletin using ionic liquids” (Scientific Reports, 2019)
Converted amounts (≈) assume the structure as drawn. Values belong to the compound of their own block, whether it stands above or below them.

Columns and labels:
[1] = design: method as in doi:10.2525/ecb.56.161, PMID 18951932; settings: cited from earlier work
[2] = cited from earlier work
blood glucose level [3] = test system: blood glucose level; design: method as in PMID 28337858; settings: transdermal insulin delivery using CAGE; cited from earlier work
[4] = cited from earlier work; remark: listed apart in the source
[5] = design: method as in PMID 30682442; settings: cited from earlier work
[6] = Measurement of NOB solubility in CAGE; type: physicochemical; settings: shaken at 37 °C for 48 h, HPLC
Description: An excess amount of NOB was added to CAGE in test tubes and the tubes were shaken at 37 °C for 48 h. The supernatants were then collected and filtered through a filter with a pore size of 0.20 µm (Toyo Roshi Co. Ltd., Tokyo, Japan), and the concentration of NOB was determined by high-pressure liquid chromatography (HPLC) (Shimadzu LC-2010C, Kyoto, Japan) with the following conditions: mobile phase 0.1% formic acid in water (solvent A) and acetonitrile (solvent B) (0–20 min, 52.5–75% solvent A); flow rate 1 mL/min; injection volume 5 µL; column Develosil ODS-HG-5, 4.6 mm × 150 mm, 5 µm particle size; column temperature 40 °C; UV detector wavelength 285 nm.

blood glucose level [7] = assay: Hypoglycemic activity after transdermal administration to SD rats; type: in vivo; settings: transdermal with CAGE, 10 mg/kg
Description: The hypoglycemic activity of the NOB/CAGE sample was evaluated following the same protocol used for the transdermal tests in vivo using SD rats as described in Section 2.4. A 5 mg/mL solution of PBS, NOB/PBS, or NOB/CAGE was transdermally administered to the donor area of the rats (10 mg/kg) and blood was collected from the tail vein after 1, 2, 4, 8, 12, and 24 h. Blood glucose was measured using a commercial glucose meter (ACCU-CHEK® ST Meter, ACCU-CHEK® ST Strip, Roche Diagnostics K.K., Tokyo, Japan) (n = 5).

[8] = In vitro skin penetration test using Franz diffusion cell; type: in vitro ADME, Yucatan micropig; settings: 24 h
Description: Porcine skin stored at −70 °C was thawed at 37 °C for 30 min, and then cut into a circle 3.5 cm in diameter. The adipose tissue of this skin was scraped off with a razor. The skin was sandwiched between the acceptor side of a Franz diffusion cell (FDC) (PermeGear, Hellertown, PA, USA) filled with phosphate buffered saline (PBS) solution, and the donor of the FDC, and both sides of the FDC were fixed with a clip. The skin was stretched without wrinkles and the acceptor was degassed. Then, 300 μL of 1, 2, 5, 7, and 10 mg/mL NOB/PBS or NOB/CAGE were added to the donor and incubated for 24 h at 37 °C. After incubation, samples in the donor were removed and the skin was washed up to 5 times with PBS solution. The skin was removed from the FDC and punched out according to the administration area. A tape stripping method was used with ten tapes to obtain parts of the stratum corneum (SC). The remaining epidermis was scraped with a razor and separated from the dermis. NOB was eluted from these tissue samples using methanol: PBS = 1:1 for 24 h. The solutions were centrifuged at 3,000 rpm at 25 °C for 3 min and the supernatant was passed through a membrane filter (pore size: 0.20 µm, Toyo Roshi Co. Ltd.). The amount of NOB in the SC, epidermis, dermis, and acceptor was quantitatively determined by HPLC as described in Section 2.1.2. […] To compare the permeation ability of CAGE with other skin permeation reagents, additional 24-h transdermal tests were performed using 1 mg/mL NOB/diethylene glycol monoethyl ether (DGME): PBS = 1:1 (v:v) and NOB/ethanol (EtOH): […]

[9] = design: method as in PMID 27076076; settings: oral, 200 mg/kg; cited from earlier work

Compound: O=c1c(O)c(-c2ccc(O)c(O)c2)oc2cc(O)cc(O)c12 [quercetin, reference compound]
BA in men [1]: 1% | Solubility in water [2]: 1.4 µg/mL (≈ 0.00463 mM)

Compound: insulin
Drop in the blood glucose level over 12 h (blood glucose level [3]): ~40%

Compound: COc1ccc(-c2cc(=O)c3c(OC)c(OC)c(OC)c(OC)c3o2)cc1OC [crystalline NOB, Nobiletin]
Oral BA of crystalline NOB ([4]; oral, 2 mg/kg): 0.46%

Compound: O=c1c(O)c(-c2ccc(O)cc2)oc2cc(O)cc(O)c12 [kaempferol, reference compound]
Solubility in water [2]: 180 µg/mL (≈ 0.629 mM) | BA [5]: 2%

solubility at 48 h [6]: 7200 µg/mL (≈ 17.9 mM) | Ratio of NOB in deeper fractions (epidermis + dermis + acceptor) to total NOB transferred to the skin ([8]; 1 mg/mL NOB in 50:50 (v:v) DGME: PBS): 41% | Ratio of NOB in deeper fractions (epidermis + dermis + acceptor) to total NOB transferred to the skin ([8]; 1 mg/mL NOB in 50:50 (v:v) EtOH: PBS): 54% | Ratio of NOB in deeper fractions (epidermis + dermis + acceptor) to total NOB transferred to the skin ([8]; 1 mg/mL NOB in CAGE): 77% | Ratio of NOB in deeper fractions (epidermis + dermis + acceptor) to total NOB transferred to the skin ([8]; 1 mg/mL NOB in PBS): 28% | Order of amount of NOB detected in the acceptor by solvent ([8]; 1 mg/mL NOB): CAGE > EtOH: PBS > PBS > DGME
Compound: COc1ccc(-c2cc(=O)c3c(OC)c(OC)c(OC)c(OC)c3o2)cc1OC [NOB, Nobiletin]
Oral bioavailability in rat ([4]; oral administration of NOB crystals to rats, ref 14 (Fig. 1: Onoue et al.[11])): 0.85% | Solubility of NOB in water ([2]; in water, ref Onoue et al.[11]): 16 µg/mL | Water solubility ([2]; ref 14 (Fig. 1: Onoue et al.[11])): 16.2 µg/mL | Decrease in the blood glucose level over 12 h (blood glucose level [7]): at most 34% | Blood glucose level accompanied with insulin injection [9]: caused a drop in the BGL | Weight gain [9]: significantly suppressed weight gain
